These results are taken from patent US20190040025A1, “INDOLEAMINE 2,3-DIOXYGENASE INHIBITOR, PREPARATION METHOD THEREFOR, AND APPLICATION” (Jiangsu Hansoh Pharmaceutical Group Co., Ltd., priority 2016, published 2019).

The target in assay [1] is T1, Human indoleamine 2,3-dioxygenase (IDO) (Homo sapiens, UniProt P14902).
T1 construct: purchased BPS Bioscience Inc
The assay is described as follows: Enzymatic test for IDO activity inhibition. It is filed as biochemical. The following applies: 40 nM IDO enzyme, 0.2 mM L-tryptophan, 60 minutes at 30° C. The procedure:
Human indoleamine 2,3-dioxygenase (IDO) was purchased from BPS Bioscience Inc. The enzymatic reaction of idoleamine 2,3-dioxygenase (IDO) was performed in a 96-well plate with a reaction volume of 20 μL. The reaction conditions were: 40 nM IDO enzyme, 0.2 mM L-tryptophan, 50 mM KPB (pH 6.5) buffer, 20 mM sodium L-L-ascorbate, 10 μM methylene blue, 0.2 mg/mL catalase, different concentrations of compounds containing <1% dimethyl sulfoxide. After reacting for 60 minutes at 30° C., 5 μL of 30% (w/v) trichloroacetic acid (in 50 mM KPB buffer) weres added to each well. The plate was incubated for 30 minutes at 50° C. to hydrolyze N-formyl-kynurenine to kynurenine. 25 μL of 2% (w/v) p-(dimethylamino)benzaldehyde (p-DMBA)/glacial acetic acid solution were added to each well. The absorbance at 490 nm was read on a BioTek Synergy H1 microplate reader […].
The stock solution of the test compound was prepared to 10 mM with dimethyl sulfoxide, diluted with dimethyl sulfoxide to the highest concentration of the test during the experiment, then diluted in 1:3 gradient, and generally diluted to 8 to 10 concentration points. Duplicate wells were set for each concentration point, and one reference compound was included in each experiment. The original data of the absorbance at 490 nm read on a microplate reader were analyzed. The inhibition of IDO enzyme activity was calculated at different concentrations of the test compound. The half-inhibitory concentration IC50 value of the compound was obtained by non-linear fitting analysis of inhibition percentage data by GraphPad Prism software.

For assay [2], the target named is T2, indoleamine 2,3-dioxygenase (IDO) in HeLa cells (Homo sapiens, UniProt P14902).
T2 construct: Interferon γ induced the expression of IDO in HeLa cells; host or cells: HeLa cells induced with interferon γ
The assay is described as follows: Cell model test for IDO activity inhibition (interferon γ induced HeLa cells). The format is cell-based. The following applies: interferon γ 50 ng/mL, 24 hours, read-out: Cytological Test IC50. The protocol: Interferon γ induced the expression of IDO in HeLa cells. This model was used to test the inhibitory activity of compounds on indoleamine 2,3-dioxygenase (IDO). The culture medium of HeLa cells (ATCC) was phenol red-free RPMI-1640 containing 100 μM L-tryptophan. The stock solution of the test compound was prepared to 10 mM with dimethyl sulfoxide, and diluted with dimethyl sulfoxide to the highest concentration of the test during the experiment, then diluted in three-fold gradient, and generally diluted to 8 to 10 concentration points. Duplicate wells were set for each concentration point. The final concentration of DMSO was 0.5%, and internal reference compound was included in each experiment.
The procedure of the experiment was as follows: 20,000 HeLa cells (ATCC) per well were added on a 96-well culture plate and incubated overnight. After 24 hours, interferon γ (final concentration of 50 ng/mL) and different concentrations of the test compound and the internal reference compound were added to the incubated cells. After 24 hours, 140 μL of the supernatant/well was transferred to a new 96-well plate, and 10 μL of 6.1 N trichloroacetic acid was added to each well. The plate was incubated for 30 minutes at 50° C. to hydrolyze N-formyl-kynurenine to kynurenine. The reaction mixture was centrifuged at 2500 rpm for 10 minutes to remove the precipitate, and the supernatant (100 μL) was transferred to another new 96-well plate. 100 μL of 2% (W/V) p-(dimethylamino)benzaldehyde (p-DMBA)/glacial acetic acid solution was added to each well. The absorbance at 490 nm was read on a BioTek Synergy H1 microplate reader […].
The original data of the absorbance at 490 nm read on a microplate reader were analyzed. The inhibition of IDO enzyme activity was calculated at different concentrations of the test compound. The half-inhibitory concentration IC50 value of the compound was obtained by non-linear fitting analysis of inhibition percentage data by GraphPad Prism software.

pIC50: −log10 of the molar value.

T1 sequence (P14902 whole entry): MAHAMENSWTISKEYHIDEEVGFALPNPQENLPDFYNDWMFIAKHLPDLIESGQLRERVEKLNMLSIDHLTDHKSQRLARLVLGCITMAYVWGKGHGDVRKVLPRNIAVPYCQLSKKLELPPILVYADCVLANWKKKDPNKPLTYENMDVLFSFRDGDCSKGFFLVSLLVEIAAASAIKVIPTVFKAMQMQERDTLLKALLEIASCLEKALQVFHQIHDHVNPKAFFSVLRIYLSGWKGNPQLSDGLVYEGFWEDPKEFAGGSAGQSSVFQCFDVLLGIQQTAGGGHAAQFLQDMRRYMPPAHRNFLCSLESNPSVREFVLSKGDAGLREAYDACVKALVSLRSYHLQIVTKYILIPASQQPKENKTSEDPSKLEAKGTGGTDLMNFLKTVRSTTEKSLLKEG
T2 sequence (P14902 whole entry): as above

On to `CCS(=O)(CCNc1nonc1/C(=N/O)Nc1ccc(F)c(Br)c1)=NC` (stereo not drawn) [Example 17, (Z)—N-(3-bromo-4-fluorophenyl)-N′-hydroxy-4-((2-(N-methylethylsulfonimidoyl)ethyl)amino)-1,2,5-oxadiazole-3-carboximidamide], for which the pIC50 in assay [1] is 7.12; in assay [2], 7.80.

On to `O=C(NO)C(=O)NCCNc1nonc1/C(=N/O)Nc1ccc(F)c(Br)c1` [Example 8, (Z)—N^1-(2-((4-(N-(3-bromo-4-fluorophenyl)-N′-hydroxycarbamimidoyl)-1,2,5-oxadiazol-3-yl)amino)ethyl)-N^2-hydroxyoxalamide], for which the negative logarithm of the IC50 (pIC50) in assay [1] was 7.12; in assay [2], 7.48.

Turning to `NS(=O)(=O)NC1CCC(Nc2nonc2/C(=N/O)Nc2ccc(F)c(Br)c2)CC1` (stereo not drawn) [Example 10, (Z)—N-(3-bromo-4-fluorophenyl)-N′-hydroxy-4-((4-(sulfamoylamino)cyclohexyl)amino)-1,2,5-oxadiazole-3-carboximidamide], the negative logarithm of the IC50 (pIC50) in assay [1] was 7.72; in assay [2], 7.43.

Take `Cc1ccc(S(=O)(=O)N=S(C)(=O)NCCNc2nonc2C(=NO)Nc2ccc(F)c(Br)c2)cc1` (stereo not drawn) [Example 13, (Z)—N-(3-bromo-4-fluorophenyl)-N′-hydroxy-4-{[2-({S-methyl-N-[(4-methylphenyl)sulfonyl]sulfonimidoyl}amino)ethyl]amino}-1,2,5-oxadiazole-3-carboximidamide]: the negative-log IC50 (pIC50) in assay [1] is 7.19; in assay [2], 7.33.

In the case of `CCNC(=O)C(=O)NCCNc1nonc1/C(=N/O)Nc1ccc(F)c(Br)c1` [Example 3, (Z)—N^1-(2-((4-(N-(3-bromo-4-fluorophenyl)-N′-hydroxycarbamimidoyl)-1,2,5-oxadiazol-3-yl)amino)ethyl)-N^2-ethyloxalamide], the negative-log IC50 (pIC50) in assay [1] is 7.25; in assay [2] it was 7.70.

As for `O=C(NCCNc1nonc1/C(=N/O)Nc1ccc(F)c(Br)c1)C(=O)NC1CC1` [Example 7, (Z)—N^1-(2-((4-(N-(3-bromo-4-fluorophenyl)-N′-hydroxycarbamimidoyl)-1,2,5-oxadiazol-3-yl)amino)ethyl)-N^2-cyclopropyloxalamide], the pIC50 in assay [1] and in assay [2] was 7.28 each time.

For the compound `CN=S(C)(=O)CCNc1nonc1/C(=N/O)Nc1ccc(F)c(Br)c1` (stereo not drawn) [Example 16, (Z)—N-(3-bromo-4-fluorophenyl)-4-((2-(N,S-dimethylsulfonimidoyl)ethyl)amino)-N′-hydroxy-1,2,5-oxadiazole-3-carboximidamide], the pIC50 in assay [1] was 7.18; in assay [2], 7.72.

Consider `CNC(=O)C(=O)NCCNc1nonc1/C(=N/O)Nc1ccc(F)c(Br)c1` [Example 2, (Z)—N^1-(2-((4-(N-(3-bromo-4-fluorophenyl)-N′-hydroxycarbamimidoyl)-1,2,5-oxadiazol-3-yl)amino)ethyl)-N^2-methyloxalamide], for which the values for the negative-log IC50 (pIC50) in assay [1] and in assay [2] were 7.15 and 7.74, respectively.

In the case of `NS(=O)(=O)NC1CC(Nc2nonc2/C(=N/O)Nc2ccc(F)c(Br)c2)C1` (stereo not drawn) [Example 11, (Z)—N-(3-bromo-4-fluorophenyl)-N′-hydroxy-4-((3-(sulfamoylamino)cyclobutyl)amino)-1,2,5-oxadiazole-3-carboximidamide], the pIC50 is 7.38 in assay [1] and 7.42 in assay [2].
